Test results: patent US20210221848A1, “POLYMYXIN DERIVATIVES AND THEIR USE IN COMBINATION THERAPY TOGETHER WITH DIFFERENT ANTIBIOTICS” (priority 2014, published 2021)
Values after ≈ are worked out from the molar mass of the structure shown. Where two headings read alike, the source gives them in different places. Bridge positions count the residues as written; N and C are the ends. Square brackets hold non-standard residues; d marks the D form. Peptide text beside a SMILES is read from it. * marks the point of attachment. aThr = C[C@H](O)[C@H](N)C(=O)O; X2 = CC(C)CN1CCNC[C@H]1C(=O)*; Dab = NCC[C@H](N)C(=O)O

Legend:
[1] = tested on: A. baumannii; conditions: absence of a second agent, Table 6B
[2] = tested on: K. pneumoniae; conditions: for MIC, K. pneumoniae ATCC 4352 / MIC, K. pneumoniae ATCC BAA-2146: absence of a second agent, Table 6B
[3] = tested on: Pseudomonas aeruginosa ATCC 27853; assay type: in vivo
Method: Groups of 7 male neutropenic specific-pathogen-free CD-1 mice weighing 21.5-27.5 g were used. On Day 0, animals were infected with 0.04 mL inoculum by intranasal instillation into mouse nostrils and were kept in an upright position on a string rack for ˜10 min post-infection. […] At 2 h, the CFU count was determined from 3 mice and the remaining mice (7 per test compound groups) were treated with a subcutaneous injection of the drug at +2, 6 and 10 hr post-infection. Test compounds and the comparator polymyxin B were administered at four concentrations (2.6, 8.6, 17.2 and 25.8 mg/kg free base). The vehicle control group (7 mice) was treated with 0.9% saline for injection at 2, 6 and 10 h post-infection.
Sixteen hours after infection, the mice were euthanized humanely. The lungs of each animal were harvested, homogenized and quantitatively cultured onto CLED agar for CFU determination. Decrease of the total CFU compared to control counts at 16 h post-infection was determined for each dose group.
The in vivo efficacy of 4 compounds of the invention (D25, D36, D42 and D50) was evaluated in a mouse lung infection model of P. aeruginosa ATCC 27853. The model was setup as described above with the exception that groups of up to 8 mice were inoculated through intranasal instillation of ˜2.5×10^6 CFUs of P. aeruginosa isolate ATCC 27853 (1.0×10^5 CFU/lung). Test compounds were administered at two concentrations (equivalent to 4.3 and 17.2 mg/kg free base). Three dose levels of polymyxin B sulfate were used as comparator (equivalent to 4.3, 8.6 and 17.2 mg/kg free base).

[4] = tested on: P. aeruginosa strains with elevated MICs to Polymyxin B; assay: MIC against strains with elevated MICs to Polymyxin B; assay type: cell-based, Pseudomonas aeruginosa; conditions: Table 6D; for MIC P. aeruginosa 065: strain 065, elevated MIC to Polymyxin B; for MIC P. aeruginosa 066: strain 066, elevated MIC to Polymyxin B; for MIC P. aeruginosa 067: strain 067, elevated MIC to Polymyxin B
Summary of the method: (§1)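 Duplicate runs; >2-fold disagreement = invalid, <2-fold = lower value kept. Inoculum: colonies (18-24 h Mueller-Hinton agar) suspended directly to 0.5 McFarland. Multiple tests → modal MIC.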

[5] = tested on: A. baumanii strains with elevated MICs to Polymyxin B; assay: as above; assay type: cell-based, Acinetobacter baumannii; conditions: Table 6D; for MIC A. baumannii 053: strain 053, elevated MIC to Polymyxin B; for MIC A. baumannii 056: strain 056, elevated MIC to Polymyxin B; for MIC A. baumannii 068: strain 068, elevated MIC to Polymyxin B; for MIC A. baumannii 070: strain 070, elevated MIC to Polymyxin B
Summary of the method: as §1

[6] = tested on: E. coli; conditions: absence of a second agent, Table 6B
[7] = tested on: K. pneumoniae strains with elevated MICs to Polymyxin B; assay: MIC against strains with elevated MICs to Polymyxin B; assay type: cell-based, Klebsiella pneumoniae; conditions: Table 6D; for MIC K. pneumoniae 062: strain 062, elevated MIC to Polymyxin B; for MIC K. pneumoniae 063: strain 063, elevated MIC to Polymyxin B; for MIC K. pneumoniae 064: strain 064, elevated MIC to Polymyxin B; for MIC K. pneumoniae 655: strain 655, elevated MIC to Polymyxin B
Summary of the method: as §1

[8] = tested on: E. coli strains with elevated MICs to Polymyxin B; assay: as above; assay type: cell-based, Escherichia coli; conditions: Table 6D; for MIC E. coli 058: strain 058, elevated MIC to Polymyxin B; for MIC E. coli 059: strain 059, elevated MIC to Polymyxin B; for MIC E. coli 060: strain 060, elevated MIC to Polymyxin B; for MIC E. coli 061: strain 061, elevated MIC to Polymyxin B
Summary of the method: as §1

[9] = tested on: P. aeruginosa; conditions: absence of a second agent, Table 6B
[10] = tested on: HK-2 cell line; assay: In vitro renal cell toxicity assay (resazurin reduction)
Method: MICs were determined as described herein. HK-2 cell IC50 values were determined as described herein. Values are reported relative to Polymyxin B.

[11] = tested on: Acinetobacter baumannii NCTC 13301; conditions: mouse thigh, 16 h model
[12] = tested on: E. coli; assay: MIC in 1:1 (wt:wt) combination with Rifampicin; assay type: cell-based, Escherichia coli; conditions: 1:1 (wt:wt) with Rifampicin, total drug concentration
Method: (§2) The inoculum was prepared by making a direct suspension of isolated colonies (selected from an 18-24 hour Mueller-Hinton agar plate) adjusted to the 0.5 McFarland standard. […] The assays were performed in duplicate. […] In cases where the duplicate values varied by less than 2-fold, the lower of the two values is reported. If a variation of greater than 2-fold was observed, the assay was considered non-valid. Several of the compounds were subjected to multiple tests, and where this is the case, the MIC reflects the modal value obtained.
(§3) MIC values (microgram/mL) refer to the total drug concentration (i.e. test agent plus Rifampicin).

[13] = tested on: K. pneumoniae; assay: MIC in 1:1 (wt:wt) combination with Rifampicin; assay type: cell-based, Klebsiella pneumoniae; conditions: 1:1 (wt:wt) with Rifampicin, total drug concentration
Method: as §2, §3

[14] = tested on: P. aeruginosa; assay: MIC in 1:1 (wt:wt) combination with Rifampicin; assay type: cell-based, Pseudomonas aeruginosa; conditions: 1:1 (wt:wt) with Rifampicin, total drug concentration
Method: as §2, §3

[15] = tested on: A. baumannii; assay: MIC in 1:1 (wt:wt) combination with Rifampicin; assay type: cell-based, Acinetobacter baumannii; conditions: A. baumannii 053; 1:1 (wt:wt) with Rifampicin; total drug concentration
Method: as §2, §3

[16] = mouse lungs, P. aeruginosa ATCC 27853, SC at 2, 6 and 10 h post-infection, 16 h infection model, 17.2 mg/kg/dose free base

Compound	MIC, A. baumannii ATCC BAA-747 [1]	MIC, A. baumannii NCTC 13424 [1]	MIC, K. pneumoniae ATCC 4352 [2]	MIC, K. pneumoniae ATCC BAA-2146 [2]	Mean log10 CFU reduction vs. control [3, 16]	MIC P. aeruginosa 065 [4]	MIC P. aeruginosa 066 [4]	MIC P. aeruginosa 067 [4]	MIC A. baumannii 053 [5]	MIC A. baumannii 056 [5]	MIC A. baumannii 068 [5]	MIC A. baumannii 070 [5]	MIC, E. coli ATCC 25922 [6]	MIC, E. coli NCTC 13441 [6]	MIC K. pneumoniae 062 [7]	MIC K. pneumoniae 063 [7]	MIC K. pneumoniae 064 [7]	MIC K. pneumoniae 655 [7]	MIC E. coli 058 [8]	MIC E. coli 059 [8]	further results
3(S)-3-aminomethyl-5- methyl hexanoyl L- Thr-L-Dap-polymyxin B heptapeptide [Example D42]	0.25 micrograms/mL	0.5 micrograms/mL	0.125 micrograms/mL	0.5 micrograms/mL	5.34 log10 CFU	4 micrograms/mL	32 micrograms/mL	>256 micrograms/mL	>256 micrograms/mL	256 micrograms/mL	16 micrograms/mL	128 micrograms/mL	0.25 micrograms/mL	0.25 micrograms/mL	>256 micrograms/mL	64 micrograms/mL	16 micrograms/mL	64 micrograms/mL	8 micrograms/mL	16 micrograms/mL	MIC E. coli 060 [8]: 16 micrograms/mL; MIC E. coli 061 [8]: 32 micrograms/mL; MIC, P. aeruginosa ATCC 27853 [9]: 0.25 micrograms/mL; MIC, P. aeruginosa CCUG 59347 [9]: 0.5 micrograms/mL
CC(C)C[C@@H]1NC(=O)[C@@H](Cc2ccccc2)NC(=O)[C@H](CCN)NC(=O)[C@@H](NC(=O)[C@H](CCN)NC(=O)[C@@H](NC(=O)[C@@H]2CNCCN2CC(C)C)[C@H](C)O)CCNC(=O)[C@H]([C@@H](C)O)NC(=O)[C@H](CCN)NC(=O)[C@H](CCN)NC1=O [Example D36, (S)-1-(2-methylpropyl)-piperazine-2-carbonyl polymyxin B nonapeptide] (X2-[aThr][Dab][Dab][Dab][dF]L[Dab][Dab]T; lactam 3-C)	–	–	–	–	–	–	–	–	–	–	–	–	–	–	–	–	–	–	–	–	MIC [2]: 0.25 µg/mL (≈ 0.221 µM); Mean log10 CFU reduction vs. control ([3]; ATCC 27853, in vivo, sc, 17.2 mg/kg, 10 h): 5.30 log10 CFU; HK-2 IC50 rel to PMB [10]: 4.5
(trans-5-(2- methylpropyl) piperidine)-3-carbonyl polymyxin B nonapeptide [Example D50]	0.25 micrograms/mL	0.25 micrograms/mL	0.06 micrograms/mL	0.125 micrograms/mL	5.29 log10 CFU	6 micrograms/mL	4 micrograms/mL	>256 micrograms/mL	128 micrograms/mL	32 micrograms/mL	8 micrograms/mL	16 micrograms/mL	0.06 micrograms/mL	0.06 micrograms/mL	64 micrograms/mL	16 micrograms/mL	4 micrograms/mL	16 micrograms/mL	4 micrograms/mL	8 micrograms/mL	Mean log10 CFU reduction vs. control ([11]; 0.215 mg/kg/dose free base SC at 2, 6 and 10 h post-infection): 0.69 log10 CFU; Mean log10 CFU reduction vs. control ([11]; 0.86 mg/kg/dose free base SC at 2, 6 and 10 h post-infection): 4.74 log10 CFU; Mean log10 CFU reduction vs. control ([11]; 2.6 mg/kg/dose free base SC at 2, 6 and 10 h post-infection): 5.05 log10 CFU; Mean log10 CFU reduction vs. control ([11]; 8.6 mg/kg/dose free base SC at 2, 6 and 10 h post-infection): 5.79 log10 CFU; Mean log10 CFU reduction vs. control ([11]; 17.2 mg/kg/dose free base SC at 2, 6 and 10 h post-infection): 5.69 log10 CFU; MIC in 1:1 combination with rifampicin, E. coli 059 ([12]; E. coli 059): ≤0.5 microgram/mL; MIC in 1:1 combination with rifampicin, E. coli 060 ([12]; E. coli 060): ≤0.5 microgram/mL; MIC in 1:1 combination with rifampicin, E. coli ATCC 25922 ([12]; E. coli ATCC 25922): ≤0.5 microgram/mL; MIC E. coli 060 [8]: 4 micrograms/mL; MIC E. coli 061 [8]: 8 micrograms/mL; MIC, P. aeruginosa ATCC 27853 [9]: 0.5 micrograms/mL; MIC, P. aeruginosa CCUG 59347 [9]: 1 micrograms/mL; MIC in 1:1 combination with rifampicin, K. pneumoniae 062 ([13]; K. pneumoniae 062): 1 microgram/mL; MIC in 1:1 combination with rifampicin, K. pneumoniae CCUG 59348 ([13]; K. pneumoniae CCUG 59348): ≤0.5 microgram/mL; MIC in 1:1 combination with rifampicin, P. aeruginosa 063 ([14]; P. aeruginosa 063): 32 microgram/mL; MIC in 1:1 combination with rifampicin, P. aeruginosa 068 ([14]; P. aeruginosa 068): 1 microgram/mL; MIC in 1:1 combination with rifampicin, A. baumannii 053 [15]: ≤0.5 microgram/mL
